Measured values: paper PMC5397431, “Multigeneration toxicity of imidacloprid and thiacloprid to Folsomia candida” (Ecotoxicology (London, England), 2017)

Legend:
Aphis gossypii = test system: Aphis gossypii; design: method as in Shi et al. (2011); details: exposed dermally for 48 h; ref Shi et al. (2011); cited from earlier work
[1] = Chemical analysis of concentrations in test soil (LC-MS) and degradation half-life (DT50); format: physicochemical
Procedure: Soil samples for chemical analysis of imidacloprid and thiacloprid in the test soil were taken at the start of the exposure of each new generation.
The analytical method to determine actual imidacloprid and thiacloprid concentrations in the test soils followed the principles of the QuEChERS extraction method modified from Anastasiades et al. ([2003]) and Payá et al. ([2007]). Briefly, the procedure used was as follows: approx. 1 g moist soil was taken for low concentration treatments (<1 mg/kg), and 50 µL internal standard (Imidacloprid-d4 and Thiacloprid-d4, 250 µg/L) was added. The sample was shaken for 20 min at 250 rpm with 2 mL methanol and centrifuged for 3 min at 1500 rpm. The methanol phase was passed through a granular Na2SO4 column, evaporated till dryness and the residue taken up in 3 mL acetonitrile. For high concentration samples (>1 mg/kg), the soil was first shaken with methanol and centrifuged. Subsequently an aliquot of 100 µL was taken and together with 50 µL internal standard (Imidacloprid-d4 and Thiacloprid-d4, 250 µg/L) added to 1 mL methanol, passed through a granular Na2SO4 column, evaporated to dryness and taken up in 3 mL acetonitrile. For clean-up, the acetonitrile extract was added to a tube filled with Supel QuE (C18 150 mg, PSA 150 mg, MgSO4 900 mg, Sigma Aldrich), shaken by hand for 2 min and centrifuged for 3 min at 3000 rpm. The supernatant was evaporated till dryness under gentle nitrogen stream and the residue taken up in 200 µL of a water-methanol (9/1) mixture.
Extracts were analyzed using LC-MS and quantified by isotope dilution (imidacloprid-d4 and thiacloprid-d4). The neonicotinoids were separated on a 100 × 2.1 mm, 2.6 µm Kinetex XB-C18 column (Phenomenex), applying a gradient of 5 mM ammonium formate pH 4 buffer and methanol, at a flow rate of 0.3 mL/min. The LC system (Agilent 1200 series) was coupled to a 6410 triple quadrupole MS (Agilent) using electrospray ionization (ESI) with data acquisition in positive ion mode. The transitions for imidacloprid were 256.1 > 175/209 (quantifier/qualifier) and for imidacloprid-d4 260 > 179. For thiacloprid the transitions were253.1 > 126/90 (quantifier/qualifier) with 257 > 126 for thiacloprid-d4.
Using data on the imidacloprid and thiacloprid concentrations measured at different times after spiking the soil in the multigeneration test, half-life (DT50) values were estimated assuming first order degradation kinetics. The equation C = C0 * e^−k*t was fitted to the data, with C = concentration at time t in days, C0 is concentration at t = 0 and k = degradation rate constant (day^−1). DT50 was derived as ln(2) / k.

SMILES: O=[N+]([O-])NC1=NCCN1Cc1ccc(Cl)nc1 [Imidacloprid, imidacloprid]
- times more sensitive than to thiacloprid (Aphis gossypii): about 7.5 times
- concentration, % of the nominal concentration ([1]; LUFA 2.2 soil, after 28 days of incubation at 20 °C, all concentrations analysed): 68.1–83.8%
- recovery, % of the nominal concentration ([1]; LUFA 2.2 soil, start of F0 exposure (T=0)): 77.6–89.9%
- concentration measured in soil ([1]; T=0, nominal 0.01, mean ± SD (n=3)): 0.0078±0.0028 mg/kg dry soil
- concentration measured in soil ([1]; T=0, nominal 0.1, mean ± SD (n=3)): 0.082±0.0018 mg/kg dry soil
- concentration measured in soil ([1]; T=0, nominal 0.3, mean ± SD (n=3)): 0.27±0.014 mg/kg dry soil
- concentration measured in soil ([1]; T=0, nominal 1.0, mean ± SD (n=3)): 0.86±0.022 mg/kg dry soil
- concentration measured in soil ([1]; T=28 d, nominal 0.1, mean ± SD (n=3)): 0.068±0.0025 mg/kg dry soil
- concentration measured in soil ([1]; T=28 d, nominal 0.3, mean ± SD (n=3)): 0.23±0.0092 mg/kg dry soil
- concentration measured in soil ([1]; T=28 d, nominal 1.0, mean ± SD (n=3)): 0.84±0.083 mg/kg dry soil
- half-life ([1]; pH 5.4): ≥ 125 days
